According to patent US9862686B2, “N1-sulfonyl-5-fluoropyrimidinone derivatives” (Adama Makhteshim Ltd., priority 2009, dated 2018):
Like-named read-outs stand apart in the source and are kept apart here.

What was measured:
[1] = tested on: Mycosphaerella graminicola; Anamorph: Septoria tritici; Bayer Code SEPTTR; test: Fungicidal activity: leaf blotch of wheat, protectant and curative treatment of inoculated wheat plants; assay type: in vivo; conditions: Zymoseptoria tritici
Procedure: Evaluation of Fungicidal Activity: Leaf Blotch of Wheat (Mycosphaerella graminicola; Anamorph: Septoria tritici; Bayer Code SEPTTR)
Wheat plants (variety Yuma) were grown from seed in a greenhouse in 50% mineral soil/50% soil-less Metro mix until the first leaf was fully emerged, with 7-10 seedlings per pot. These plants were inoculated with an aqueous spore suspension of Septoria tritici either prior to or after fungicide treatments. After inoculation the plants were kept in 100% relative humidity (one day in a dark dew chamber followed by two to three days in a lighted dew chamber) to permit spores to germinate and infect the leaf. The plants were then transferred to a greenhouse for disease to develop.
The following table presents the activity of typical compounds of the present disclosure when evaluated in these experiments. The effectiveness of the test compounds in controlling disease was determined by assessing the severity of disease on treated plants, then converting the severity to percent control based on the level of disease on untreated, inoculated plants.
In each case of Table II the rating scale is as follows: […]

[2] = 24 h, One-Day Protectant (1DP), 100 ppm, wheat plants (variety Yuma), percent control vs untreated inoculated plants, read-out: SEPTTR 100 PPM 1DP (% Disease Control rating)
[3] = 72 h, Three-Day Curative (3DC), 100 ppm, wheat plants (variety Yuma), percent control vs untreated inoculated plants, read-out: SEPTTR 100 PPM 3DC (% Disease Control rating)

SMILES | melting point | pest or weed control at 100 ppm [1, 2] | pest or weed control at 100 ppm [1, 3] | pest or weed control at 100 ppm ([1]; 24 h, read-out: SEPTTR 100 PPM 1DP (% Disease Control rating)) | pest or weed control at 100 ppm ([1]; 72 h, read-out: SEPTTR 100 PPM 3DC (% Disease Control rating))
O=C(Nc1nc(=O)n(S(=O)(=O)c2ccc(Cl)cc2)cc1F)Oc1ccccc1 | 192 to 195 °C | – | – | – | –
CN(C)/C=N/c1nc(=O)n(S(=O)(=O)c2ccccc2)cc1F [Cmpd 1, N′-(1-benzenesulfonyl-5-fluoro-2-oxo-1,2-dihydro-pyrimidin-4-yl)-N,N-dimethylformamidine] | 203 to 204 °C | 76 to 100% | 76 to 100% | – | –
CN(C)/C=N/c1nc(=O)n(S(=O)(=O)c2ccc(Cl)cc2)cc1F [Cmpd 2, N′-[1-(4-chloro-benzenesulfonyl)-5-fluoro-2-oxo-1,2-dihydro-pyrimidin-4-yl]-N,N-dimethylformamidine] | 207 to 210 °C | 76 to 100% | 76 to 100% | – | –
CN(C)/C=N/c1nc(=O)n(S(C)(=O)=O)cc1F [Cmpd 3] | 133 to 134 °C | 76 to 100% | 76 to 100% | – | –
Cc1ccc(S(=O)(=O)n2cc(F)c(/N=C/N(C)C)nc2=O)cc1 [Cmpd 4] | 199 to 203 °C | 76 to 100% | 76 to 100% | – | –
COc1ccc(S(=O)(=O)n2cc(F)c(/N=C/N(C)C)nc2=O)cc1 [Cmpd 5] | 188 to 190 °C | 76 to 100% | 76 to 100% | – | –
CCCS(=O)(=O)n1cc(F)c(/N=C/N(C)C)nc1=O [Cmpd 6] | 144 to 145 °C | 76 to 100% | 76 to 100% | – | –
CN(C)/C=N/c1nc(=O)n(S(=O)(=O)c2cccs2)cc1F [Cmpd 7] | 205 to 207 °C | 76 to 100% | 76 to 100% | – | –
Nc1nc(=O)n(S(=O)(=O)c2ccc(Cl)cc2)cc1F [Cmpd 8, 4-amino-1-(4-chloro-benzenesulfonyl)-5-fluoro-1H-pyrimidin-2-one] | – | 76 to 100% | 76 to 100% | – | –
Nc1nc(=O)n(S(=O)(=O)c2cccs2)cc1F [Cmpd 9] | 187 to 189 °C | 76 to 100% | 76 to 100% | – | –
CCCS(=O)(=O)n1cc(F)c(N)nc1=O [Cmpd 10] | 144 to 146 °C | 76 to 100% | 76 to 100% | – | –
Cn1cnc(S(=O)(=O)n2cc(F)c(N)nc2=O)c1 [Cmpd 11] | 235 to 237 °C | 26 to 50% | 26 to 50% | – | –
Nc1nc(=O)n(S(=O)(=O)Cc2ccccc2)cc1F [Cmpd 12] | 172 to 174 °C | 76 to 100% | 76 to 100% | – | –
Nc1nc(=O)n(S(=O)(=O)c2ccc(Cl)cc2Cl)cc1F [Cmpd 13] | 229 to 230 °C | 76 to 100% | 76 to 100% | – | –
Nc1nc(=O)n(S(=O)(=O)c2ccc(C(F)(F)F)cc2)cc1F [Cmpd 14] | 202 to 204 °C | 76 to 100% | 76 to 100% | – | –
CS(=O)(=O)c1ccc(S(=O)(=O)n2cc(F)c(N)nc2=O)cc1 [Cmpd 15] | 220 to 223 °C | 51 to 75% | 76 to 100% | – | –
N#Cc1ccc(S(=O)(=O)n2cc(F)c(N)nc2=O)cc1 [Cmpd 16] | 210 °C | 51 to 75% | 76 to 100% | – | –
Nc1nc(=O)n(S(=O)(=O)c2ccc(Cl)c(Cl)c2)cc1F [Cmpd 17] | 206 to 207 °C | 76 to 100% | 76 to 100% | – | –
Nc1nc(=O)n(S(=O)(=O)c2c(Cl)cccc2Cl)cc1F [Cmpd 18] | 209 to 212 °C | 76 to 100% | 76 to 100% | – | –
Nc1nc(=O)n(S(=O)(=O)Cc2ccc(Br)cc2)cc1F [Cmpd 19] | 156 to 159 °C | 76 to 100% | 76 to 100% | – | –

SMILES | melting point | pest or weed control at 100 ppm [1, 2] | pest or weed control at 100 ppm [1, 3] | pest or weed control at 100 ppm ([1]; 24 h, read-out: SEPTTR 100 PPM 1DP (% Disease Control rating)) | pest or weed control at 100 ppm ([1]; 72 h, read-out: SEPTTR 100 PPM 3DC (% Disease Control rating))
Nc1nc(=O)n(S(=O)(=O)Cc2ccc(Cl)cc2)cc1F [Cmpd 20] | 168 to 170 °C | – | – | – | –
Cc1ccc(CS(=O)(=O)n2cc(F)c(N)nc2=O)cc1 [Cmpd 21] | 164 to 166 °C | – | – | – | –
Cc1cc(S(=O)(=O)n2cc(F)c(N)nc2=O)ccc1Oc1ncc(C(F)(F)F)cc1Cl [Cmpd 22] | – | 76 to 100% | 76 to 100% | – | –
Cc1cc(Oc2ncc(C(F)(F)F)cc2Cl)ccc1S(=O)(=O)n1cc(F)c(N)nc1=O [Cmpd 23] | 132 °C (dec.) | 76 to 100% | 76 to 100% | – | –
Nc1nc(=O)n(S(=O)(=O)c2ccccc2)cc1F [Cmpd 24] | 195 to 196 °C | 76 to 100% | 76 to 100% | – | –
Cc1ccc(S(=O)(=O)n2cc(F)c(N)nc2=O)cc1 [Cmpd 25] | 208 to 210 °C | 76 to 100% | 76 to 100% | – | –
COc1ccc(S(=O)(=O)n2cc(F)c(N)nc2=O)cc1 [Cmpd 26] | 182.5 °C | 76 to 100% | 76 to 100% | – | –
CS(=O)(=O)n1cc(F)c(N)nc1=O [Cmpd 27] | 181 to 184 °C | 76 to 100% | 76 to 100% | – | –
CN(C)/C=N/c1nc(=O)n(S(=O)(=O)c2cn(C)cn2)cc1F [Cmpd 28, N′-[5-fluoro-1-(1-methyl-1H-imidazole-4-sulfonyl)-2-oxo-1,2-dihydro-pyrimidin-4-yl]-N,N-dimethylformamidine] | – | 26 to 50% | 51 to 75% | – | –
CN(C)/C=N/c1nc(=O)n(S(=O)(=O)c2c(Cl)cccc2Cl)cc1F [Cmpd 29] | 207 to 211 °C | 76 to 100% | 76 to 100% | – | –
CN(C)/C=N/c1nc(=O)n(S(=O)(=O)Cc2ccccc2)cc1F [Cmpd 30] | 152 to 154 °C | – | – | – | –
CN(C)/C=N/c1nc(=O)n(S(=O)(=O)Cc2ccc(Cl)cc2)cc1F [Cmpd 31] | 140 to 143 °C | – | – | – | –
Cc1ccc(CS(=O)(=O)n2cc(F)c(/N=C/N(C)C)nc2=O)cc1 [Cmpd 32] | 150 to 152 °C | – | – | – | –
O=C(Nc1nc(=O)n(S(=O)(=O)c2ccccc2)cc1F)c1ccccc1 [Cmpd 33, N-(1-benzenesulfonyl-5-fluoro-2-oxo-1,2-dihydro-pyrimidin-4-yl)-benzamide] | – | – | – | 76 to 100% | 26 to 50%
CC(=O)Nc1nc(=O)n(S(=O)(=O)c2ccc(Cl)cc2)cc1F [Cmpd 34] | 159 to 162 °C | 76 to 100% | 76 to 100% | – | –
CCC(=O)Nc1nc(=O)n(S(=O)(=O)c2ccc(Cl)cc2)cc1F [Cmpd 35] | 148 to 154 °C (dec.) | 76 to 100% | 76 to 100% | – | –
CC(C)(C)C(=O)Nc1nc(=O)n(S(=O)(=O)c2ccc(Cl)cc2)cc1F [Cmpd 36] | 129 to 132 °C | 76 to 100% | 76 to 100% | – | –
O=C(Nc1nc(=O)n(S(=O)(=O)c2ccc(Cl)cc2)cc1F)c1ccccc1 [Cmpd 37] | 156 to 159 °C | 76 to 100% | 26 to 50% | – | –
O=C(Nc1nc(=O)n(S(=O)(=O)c2ccc(Cl)cc2)cc1F)c1ccc(Cl)cc1 [Cmpd 38, 4-chloro-N-[1-(4-chlorobenzenesulfonyl)-5-fluoro-2-oxo-1,2-dihydropyrimidin-4-yl]benzamideamide] | – | 76 to 100% | 0 to 25% | – | –
O=C(Nc1ccccc1)Nc1nc(=O)n(S(=O)(=O)c2ccc(Cl)cc2)cc1F [Cmpd 41] | 211 to 214 °C | – | – | – | –
